Experiments:
[1] = tested on: IRF4; test: IRF4 protein by western blotting; format: cell-based, mouse; settings: IL4, emodin 0-50 μM, 6 h
Procedure: (§1) Following stimulation with IL4 or LPS+IFNγ with or without emodin for varying periods, macrophages were lysed with cell signaling lysis buffer (Millipore) for whole cell lysates. Cytoplasmic and nuclear extracts were prepared using the Epiquik Nuclear Extraction kit (Epigentek, Farmingdale, N.Y.). Total protein was separated on 4-20% Tris-glycine pre-cast gels (Pierce) and transferred onto Nitrocellulose membranes (Bio-Rad Life Science, Hercules, Calif.). The membranes were then probed with HRP conjugated secondary antibodies, and signals were detected using Pierce ECL Western Blotting Substrate (Pierce).

[2] = tested on: mouse peritoneal macrophages; test: Macrophage migration assay toward MCP1 (transwell); format: cell-based; settings: LPS/IFNγ or IL4 stimulated, emodin 50 μM, MCP1 20 ng/ml
Procedure: Macrophages were stimulated with IL4 or LPS+IFNγ for 24 h with or without emodin. The media was then removed and the cells were washed with PBS. The cells were then resuspended in DMEM with scraping and 2×10^5 macrophages were seeded in triplicate into the top chamber of transwell inserts with 8 μm pores (Corning) and place in 24 well plates. Serum free DMEM with 20 ng/ml MCP1 was placed in the bottom of the wells. After 4 h, inserts were fixed in 4% paraformaldehyde for 20 min; the cells in upper inserts were swabbed using cotton buds, and the cells left on the membrane were stained with DAPI (1 μg/ml) for 1 min. The inserts were then cut out, mounted onto slides and imaged under a Nikon Eclipse NI-U fluorescence microscope (Nikon Inc. Melville, N.Y.) at 20× magnification (5 fields/insert). DAPI stained cells were quantified using Nikon NIS-Elements software.

[3] = tested on: mouse peritoneal macrophages; test: NO production assay; format: cell-based; settings: LPS/IFNγ 24 h, emodin 0-50 μM
Procedure: Macrophages were stimulated with LPS+IFNγ for 24 h with various concentrations of emodin (0-50 μM). The culture media was then collected and the NO content was detected using a Nitrite/Nitrate colormetric kit (Sigma-Aldrich) according to the manufacturer's instructions. The assay was read using a Spectramax M5 microplate reader (Molecular Devices, Sunnyvale, Calif.).

[4] = tested on: NFκB p65, STAT1, IRF5, STAT6, IRF4; test: Nuclear translocation of transcription factors (western blotting of nuclear fractions); format: cell-based, mouse; settings: emodin 50 μM 24 h
Procedure: as §1

[5] = tested on: 4T1 cells; test: Cell viability, LDH assay; format: cell-based, mouse; settings: emodin 0-100 μM, 24-48 h
Procedure: (§2) Tumor cells (2×10^4 EO771 or 4T1 cells) were seeded into 96 well culture plates in DMEM with 10% FBS. The cells were incubated overnight at 37° C. The medium was then removed, and the cells were washed with phosphate-buffered saline (PBS). DMEM containing varying concentrations of emodin (0-100 μM) was then added to the cells in quadruplicate. Vehicle control contained an equal volume of DMSO. Plates of cells were then incubated for 24-48 h. After an indicated period, the viability of the cells was determined using a Lactate Dehydrogenase (LDH) Cytotoxicity Detection Kit (Clontech Mountain View, Calif.) according to the manufacturer's instructions. Briefly, the supernatant was removed from each well on the plate and placed in a new well on the same plate. An equal volume of cell lysis buffer (2% triton in DMEM) was then added to each well containing the cancer cells, and the cells were incubated at room temperature for 15 min. The reaction mixture was then added to each well (cell lysate plus supernatant) and incubated for 5 min before the stop solution was added. The absorbance was measured at 490 nm on a Spectra Max M5 Microplate Reader (Molecular Devices, Sunnyvale, Calif.). The percent viability was then calculated as the ratio of LDH in the cell lysate to the total amount of LDH in the lysate plus the supernatant. The viability of each group was compared to the control.

[6] = tested on: EO771 cells; test: Cell viability, LDH assay; format: cell-based, mouse; settings: emodin 0-100 μM, 24-48 h
Procedure: as §2

[7] = tested on: Breast tumor cells from MMTV-PyMT mice; test: Gene expression in ex vivo breast tumor cells (qPCR); format: cell-based, mouse

Q: Which results are given for `Cc1cc(O)c2c(c1)C(=O)c1cc(O)cc(O)c1C2=O` [emodin]?
A: IRF4 protein production [1]: dose dependently inhibited; macrophage migration toward MCP1 [2]: significantly reduced; NO production [3]: dose dependently inhibited; STAT6 nuclear translocation ([4]; IL4 stimulation): drastically inhibit; nuclear IRF4 ([4]; IL4 stimulation): inhibited; NFκB p65 nuclear translocation ([4]; LPS/IFNγ stimulation): drastically inhibit; STAT1 and IRF5 nuclear translocation ([4]; LPS/IFNγ stimulation): inhibited; concentration from which a slight effect on cell viability starts [5]: ≥ 25 µM; concentration from which a slight effect on cell viability starts [6]: ≥ 25 µM; expression of CCL2, CSF1, CD90, N-cadherin, vimentin, FoxC2 and KLF4 [7]: significantly suppressed
